This note sets out measurements from paper PMC8619001, “Discovery of New Ginsenol-Like Compounds with High Antiviral Activity” (Molecules, 2021).

In the assay the test system is A/Vladivostok/2/2009 (H1N1). Nature of the assay: microbe, parasite or virus in culture. It is filed as cell-based. As to conditions: Influenza A virus, H1N1, MDCK, 72 h, read-out: IC50 H1N1.

Molecules are shown by their SMILES.

The IC50 is the midpoint of a concentration-inhibition curve.

For the compound `CC(=O)NC12CC(C)(C)C3CCC1(C)CCCC32C` [Compound 1a, (1S,3aR,4R,7aS)-N-(2,2,4,7a-tetramethyloctahydro-1,4-etanoinden-3a-yl)-acetamide], the IC50 stood at 380 ± 51 nM.
